Source: patent publication US20260137697A1, “THIAZOLO[5,4-D]PYRIMIDINE COMPOUNDS, COMPOSITIONS COMPRISING THEM AND USES THEREOF” (University de Montreal, priority 2022, published 2026)
Like-named read-outs stand apart in the source and are kept apart here.

Assays:
Format in all cases: cell-based, human
SW480 cells = experiment: Proliferation inhibition, CellTiter-Glo, SW480; conditions: Table D-2, SW480 (KRAS G12D), 3 days, read-out: Prolif. (proliferation EC50)
Protocol: (§1) All cancer cell lines (A375, A101D, A2058, RKO, HT29 SK-MEL 30, IPC298, HepG2, HCT-116, Lovo, SW620, SW480, NCI-H358, NCI-H2122, Calu-6, NCIH2087, NCIH1755, NCIH1666 and Mewo) were obtained from ATCC and cultured in RPM1-1640 medium (Gibco) supplemented with 5% heat inactivated fetal bovine serum (FBS, Wisent) at 37° C. under 5% CO2. Cells were maintained in T175 flasks (Greiner). They were passaged by removing the culture medium, washing once in 10 mL of room temperature Phosphate Buffered Saline (PBS; Wisent) and incubating at 37° C. with 2 mL of 0.05% Trypsin (Thermo-Fisher). Trypsin was then inactivated by adding complete growth medium and the cells were then replated in a T175 culture dish at the appropriate dilution. All cell lines were routinely tested for mycoplasma contamination. Tissue type and mutational status of each cell line can be found in Table B.
CellTiter-Glo® viability analysis was conducted on cells plated in 100 μL of complete RPMI-1640 growth medium in 96-well flat-bottomed white opaque plates (Greiner or Croning) at a density indicated in Table E (for each CCL, number of cells plated per well of a 96-well plate to perform the CellTiter-Glo® cell viability assay). The cell density in cells/cm^2 would correspond to cell number divided by the area of one well of a 96-well plate (0.32 cm^2). […]
After 3 days of incubation, the growth media were removed by aspiration and 60 μL of diluted CellTiter-Glo® reagent (10 μL CellTiter-Glo® reagent+50 μL of PBS) was added to each well. […] Luminescence signals were then acquired on a Synergy Neo2 plate reader (Biotek).
The effect of each compound dilution on the proliferation of cancer cell lines was expressed in % inhibition and calculated as follows. […]
(§2) The ability of each compound to inhibit proliferation was expressed as a EC50 value obtained by plotting the effect values for each data point of a dilution series and fitting the obtained curves using a log(agonist) versus response—variable slope (four parameters) function using GraphPadPrism (V7.0) or Dotmatics Screening Ultra platform.

pERK, NCI-H2122 cells = experiment: Phospho-ERK inhibition, AlphaLISA p-ERK 1/2, NCI-H2122; conditions: Table D-2; for IC50: NCI-H2122 (KRAS-G12C); for pERK value in parentheses, % inhibition (Ymin): NCI-H2122, lowest point of IC50 curve
Protocol: as §1
(§3) (c) Measurement of Phospho-ERK Inhibition in Cultivated Human Cancer Cell Lines by the AlphaLISA® SureFire® Ultra™ p-ERK 1/2 (Thr2O2/Tyr204)
(§4) AlphaLISA® SureFire® Ultra™ p-ERK 1/2 (Thr202/Tyr204) analysis was conducted on cells plated in 100 μL of complete RPMI-1640 growth medium in 96-well flat-bottomed transparent dishes (Costar) at a density indicated in Table C. Cells were maintained overnight at 37° C. under 5% CO2 before treatment with compounds' dilution series for one hour. The cell density in cells/cm^2 corresponds to cell number divided by the area of one well of a 96-well plate (0.143 cm^2).
(§5) In a dilution series 100 μL/well of test substance dilution prepared in complete RPMI-1640 growth media was added to the cells. The dilution series is selected so that ten concentrations cover a range from 10 μM to 0.33 nM. If necessary, the initial concentration of 10 μM is increased to 100 μM or lowered to 1 μM (as in the case of A375 and H1666 cells, which are generally more sensitive to the compounds) and further dilution is carried out accordingly. The final concentration of DMSO in the assay is set at 0.5%.
(§6) After treatment, media was removed, and cells were lysed in 50 μL of 1× AlphaScreen Ultra Lysis Buffer (Perkin Elmer). The AlphaLISA® SureFire® Ultra™ p-ERK 1/2 (Thr202/Tyr204) (PerkinElmer) reactions were performed with 5 μL of cell lysate according to the manufacturer's specifications in 384-well proxyplates (Perkin Elmer) followed by overnight incubation of the reactions at room temperature in a humidified chamber. After completion of the reactions, the signals were recorded on an EnVision plate reader (Perkin Elmer) using built in AlphaLISA® settings.
(§7) The effect of each compound dilution on the pERK signal was expressed in % inhibition and calculated as follows. An internal 100% inhibition control (1 μM trametinib, cat. No. HY-10999; MedChem Express; CAS No. 871700-17-3) was included in each plate and used as a measure of pERK background. First, the value obtained for trametinib was subtracted from each data point. The average of DMSO (vehicle) controls (set as 0% inhibition) was established and used to calculate % inhibition:
as §2, with “pERK signal” for “proliferation”, “an IC50” for “a EC50”, “inhibition” for “effect”
(§8) When present, paradoxical pERK induction is inferred from the negative % inhibition values observed in the pERK IC50 curves of a compound.

pERK, NCI-H358 cells = experiment: Phospho-ERK inhibition, AlphaLISA p-ERK 1/2, NCI-H358; conditions: Table D-2; for IC50: NCI-H358 (KRAS-G12C); for pERK value in parentheses, % inhibition (Ymin): NCI-H358, lowest point of IC50 curve
Protocol: as §1, §3, §4, §5, §6, §7
as §2, with “pERK signal” for “proliferation”, “an IC50” for “a EC50”, “inhibition” for “effect”
as §8

Row | EC50 (SW480 cells; Homo sapiens, 72 h) [nM] | IC50 (pERK, NCI-H2122 cells; Homo sapiens) [nM] | IC50 (pERK, NCI-H358 cells; Homo sapiens) [nM] | EC50 (SW480 cells) [nM] | IC50 (pERK, NCI-H2122 cells) [nM] | IC50 (pERK, NCI-H358 cells) [nM] | Compound | pERK value in parentheses, % inhibition (Ymin) (pERK, NCI-H2122 cells) | pERK value in parentheses, % inhibition (Ymin) (pERK, NCI-H358 cells)
1 | 300 to 3000 | 30 to 300 | 30 to 300 | – | – | – | Cc1ccc2c(Nc3cccc(Cl)c3F)nccc2c1NC(=O)c1csc2c(N)ncnc12 [Belvarafenib, reference compound] | (−9) % | (−122) %
2 | – | – | – | < 300 | 30 to 300 | 30 to 300 | Cc1c(F)cccc1S(=O)(=O)Nc1ccc(F)c(Nc2ncnc3sc(-n4cc(C(=O)N5C6CCC5CN(C)C6)c5ccccc54)nc23)c1F [Example 44] | (−11) % | (1) %
3 | – | – | – | < 300 | 30 to 300 | 30 to 300 | N#CC1(c2cccc3c2ncn3-c2nc3c(Nc4c(F)ccc(NS(=O)(=O)c5cccc(Cl)c5Cl)c4F)ncnc3s2)CC1 [Example 122] | (27) % | (−3) %
